Source: patent US9168247B2, “Beta carboline derivatives useful in the treatment of proliferative disorders” (FACULTES UNIVERSITAIRES NOTRE DAME DE LA PAIX, priority 2010, dated 2015)

These molecules were tested against DYRK1A protein kinase (Homo sapiens (Human), UniProt Q13627) (assay: Radiometric protein kinase assay (33PanQinase Activity Assay)). Settings: 10 concentrations in triplicate, 1 μM ATP; read-out: IC50: Concentration of drug (μM) needed in order to inhibit dyrk1A kinase activity by 50%.
Assay type: biochemical
Description: The IC50 profile of JR212, JR220, JR84, CV12, CV24, and JR95 was determined on DYRK1A protein kinase. […] Compound cv12 was tested in the range from about 5×10^−5 M to about 1.5×10^−9 M in triplicate.
A radiometric protein kinase assay (33PanQinase® Activity Assay) was used for measuring the kinase activity of DYRK1A protein kinase. All kinase assays were performed in 96-well FlashPlates™ from Perkin Elmer (Boston, Mass., USA) in a 50 μl reaction volume. The reaction cocktail was pipetted in four steps in the following order: 20 μl of assay buffer (standard buffer); 5 μl of [γ-33P]-ATP solution (in H2O); 5 μl of test compound (in 10% DMSO); 10 μl of substrate/10 μl of enzyme solution (premixed).
The assay contained 60 mM HEPES-NaOH, pH 7.5, 3 mM MgCl2, 3 mM MnCl2, 3 μM Na-orthovanadate, 1.2 mM DTT, 50 μg/ml PEG20000, 1 μM [γ-^33P]-ATP (approx. 3×10^5 cpm per well), protein kinase, and substrate.
For the determination of inhibitory profiles, DYRK1A protein kinase was used, which was purchased from Invitrogen Corporation. The kinase was expressed in […] as human recombinant GST-fusion protein by means of the baculovirus expression system. According to the data sheet, the purity of the kinase was checked by SDS-PAGE/Coomassie staining and the identity of the kinase was verified by mass spectroscopy. About 5 ng/50 μl (about 0.9 nM) of dyrk1A kinase and about 2000 ng/50 μl of substrate (RBER-CHKtide) are used in each assay.
The reaction cocktails were incubated at 30° C. for 60 minutes. The reaction was stopped with 50 μl of 2% (v/v) H3PO4, plates were aspirated and washed two times with 200 μl 0.9% (w/v) NaCl. Incorporation of ^33P was determined with a microplate scintillation counter (Microbeta, Wallac).
All assays were performed with a BeckmanCoulter/SAGIAN™ Core System.
For each plate, the median value of the cpm of the wells with complete reaction cocktails, but without kinase or compound to be tested, was defined as “low control” (n=8). This value reflects unspecific binding of radioactivity to the plate in the absence of protein kinase but in the presence of the substrate. Additionally, for each plate the median value of the cpm of the wells with the complete reaction cocktail, but without any compound, was taken as the “high control”, i.e., full activity in the absence of any inhibitor (n=8). The difference between high and low control of was taken as 100% activity for each kinase. As part of the data evaluation the “low control” value from a particular plate was subtracted from the “high control” value as well as from all 80 “compound values” of the corresponding plate. The residual activity (in %) for each compound well was calculated by using the following formula: Res. Activity (%)=100×[(cpm of compound−low control)/(high control−low control)].
With `Cc1nccc2c3ccc(OCc4ccccc4)cc3n(Cc3ccccc3)c12` [CV9/JR84, 1-methyl-7-benzyloxy-9-benzyl-β-carboline] the IC50 was 16.3 µM.
With `Cc1c2c(cc[n+]1Cc1ccccc1)c1ccc(OCc3ccccc3)cc1n2Cc1ccccc1.[Br-]` [CV21/JR95, 1-methyl-2-benzyl-7-benzyloxy-9-benzyl-β-carbolin-2-ium bromide] the IC50 was 21.2 µM.
Work on `Cc1nccc2c1[nH]c1cc(OCc3cccnc3)ccc12` [JR212] yielded an IC50 of 10 µM.
For `COCCOc1ccc2c(c1)[nH]c1c(C)nccc12` [JR220], the IC50 was 15.5 µM.
